Values joined by “and” are separate entries in the source; they are usually repeats but may differ in a detail not shown here. Equal values may be shown once. Marks after values point to notes of the source that are not given here.
Experiments:
[1] = tested on: A/Udorn/72 (H3N2) virus (M2-WT); test: microbe, parasite or virus in culture; type: cell-based; details: Influenza A virus, H3N2, MDCK, read-out: Antiviral Efficacy EC50, A/Udorn/72 (H3N2) M2-WT
[2] = tested on: influenza A/Solomon Islands/3/2006 (H1N1) virus; design: species or system BALB/c mice; details: mouse, in vivo
[3] = mouse, in vivo
MDCK cells = details: read-out: Cytotoxicity CC50, neutral red, 24 h

With NC12CC3CC(CC(C3)C1)C2 [Amantadine (1), amantadine] the EC50 [1] was […], the “MDD ± SD (mean day of death)” value [2] was 13.0 ± 6.4 days and 9.4 ± 1.9 days and the Survivors/Total [2] was 10/10^*** and 6/10^***. The “survival rate / protection” value [2] was 100%.

For NC1CCC2(CC1)C1CC3CC(C1)CC2C3 (stereo not drawn) [Compound 3, spiroadamantane amine], the “body weight difference compared to placebos and normal control animals” value [3] was 3%, the tolerability [3] was “well tolerated” and the Survivors/Total [2] was 7/10^*** and 1/10 and 0/10. The “survival rate / protection” value [2] was 70% and the CC50 (MDCK cells) was 27.6 ± 0.5 µM.

Source: PMC5326599 (Antiviral research, 2017)
